The source made the active and inactive calls.
Key:
CAAX prenyl protease 2 = target: T1, CAAX prenyl protease 2 (Saccharomyces cerevisiae S288c, UniProt Q03530); format: biochemical
T1 sequence (Q03530 whole entry): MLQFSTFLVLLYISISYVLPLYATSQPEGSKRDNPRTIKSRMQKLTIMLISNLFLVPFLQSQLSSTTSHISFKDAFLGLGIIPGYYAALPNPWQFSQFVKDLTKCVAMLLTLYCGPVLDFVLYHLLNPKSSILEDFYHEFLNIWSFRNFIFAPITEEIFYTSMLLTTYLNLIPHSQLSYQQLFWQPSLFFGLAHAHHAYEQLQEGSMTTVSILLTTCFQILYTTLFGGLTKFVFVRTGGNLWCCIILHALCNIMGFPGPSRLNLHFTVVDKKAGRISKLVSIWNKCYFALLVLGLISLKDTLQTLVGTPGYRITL

[1] = target: T2, Aryl hydrocarbon receptor (Homo sapiens, UniProt P35869); test: Luminescence-based cell-based high throughput dose response assay for activators of the Aryl Hydrocarbon Receptor (AHR). [Related pubchem assays: 2796 (Primary screen (AHR activators in singlicate)), 2845 (Confirmation screen (AHR activators in triplicate)), 434939 (Counterscreen (PXR activators in triplicate)), 2804 (Summary (AHR activators))]; format: ADME
T2 sequence (P35869 whole entry): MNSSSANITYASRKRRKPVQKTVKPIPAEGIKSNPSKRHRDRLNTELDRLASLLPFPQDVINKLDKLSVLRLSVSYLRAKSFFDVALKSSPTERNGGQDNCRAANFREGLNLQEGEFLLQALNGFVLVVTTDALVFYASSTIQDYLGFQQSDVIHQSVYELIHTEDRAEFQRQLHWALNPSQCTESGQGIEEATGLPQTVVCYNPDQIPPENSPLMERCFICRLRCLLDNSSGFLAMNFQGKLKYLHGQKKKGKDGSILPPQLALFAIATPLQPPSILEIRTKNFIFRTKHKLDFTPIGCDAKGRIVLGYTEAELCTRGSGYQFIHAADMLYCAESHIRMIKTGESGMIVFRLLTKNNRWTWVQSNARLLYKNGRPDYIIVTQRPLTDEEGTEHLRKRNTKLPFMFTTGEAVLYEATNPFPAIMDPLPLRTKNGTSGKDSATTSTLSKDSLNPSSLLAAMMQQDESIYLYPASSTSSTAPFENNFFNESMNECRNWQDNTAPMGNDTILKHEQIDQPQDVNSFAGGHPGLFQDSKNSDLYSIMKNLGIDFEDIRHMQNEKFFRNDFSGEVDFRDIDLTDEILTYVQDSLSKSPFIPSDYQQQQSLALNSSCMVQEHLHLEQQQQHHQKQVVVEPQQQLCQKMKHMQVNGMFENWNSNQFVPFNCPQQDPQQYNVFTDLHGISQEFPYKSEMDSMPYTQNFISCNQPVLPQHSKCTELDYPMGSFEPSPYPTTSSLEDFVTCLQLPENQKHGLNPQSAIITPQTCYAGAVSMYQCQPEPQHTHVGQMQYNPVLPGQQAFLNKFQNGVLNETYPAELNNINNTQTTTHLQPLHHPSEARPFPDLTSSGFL

[2] = target: T3, Short transient receptor potential channel 4 (Mus musculus, UniProt Q9QUQ5); test: calcium entry via TRPC4 opening agents – cell-based, HEK293 TRPC4/mu-opioid, Fluo-4 calcium, dose response (AID 434937); format: functional
T3 sequence (Q9QUQ5 whole entry): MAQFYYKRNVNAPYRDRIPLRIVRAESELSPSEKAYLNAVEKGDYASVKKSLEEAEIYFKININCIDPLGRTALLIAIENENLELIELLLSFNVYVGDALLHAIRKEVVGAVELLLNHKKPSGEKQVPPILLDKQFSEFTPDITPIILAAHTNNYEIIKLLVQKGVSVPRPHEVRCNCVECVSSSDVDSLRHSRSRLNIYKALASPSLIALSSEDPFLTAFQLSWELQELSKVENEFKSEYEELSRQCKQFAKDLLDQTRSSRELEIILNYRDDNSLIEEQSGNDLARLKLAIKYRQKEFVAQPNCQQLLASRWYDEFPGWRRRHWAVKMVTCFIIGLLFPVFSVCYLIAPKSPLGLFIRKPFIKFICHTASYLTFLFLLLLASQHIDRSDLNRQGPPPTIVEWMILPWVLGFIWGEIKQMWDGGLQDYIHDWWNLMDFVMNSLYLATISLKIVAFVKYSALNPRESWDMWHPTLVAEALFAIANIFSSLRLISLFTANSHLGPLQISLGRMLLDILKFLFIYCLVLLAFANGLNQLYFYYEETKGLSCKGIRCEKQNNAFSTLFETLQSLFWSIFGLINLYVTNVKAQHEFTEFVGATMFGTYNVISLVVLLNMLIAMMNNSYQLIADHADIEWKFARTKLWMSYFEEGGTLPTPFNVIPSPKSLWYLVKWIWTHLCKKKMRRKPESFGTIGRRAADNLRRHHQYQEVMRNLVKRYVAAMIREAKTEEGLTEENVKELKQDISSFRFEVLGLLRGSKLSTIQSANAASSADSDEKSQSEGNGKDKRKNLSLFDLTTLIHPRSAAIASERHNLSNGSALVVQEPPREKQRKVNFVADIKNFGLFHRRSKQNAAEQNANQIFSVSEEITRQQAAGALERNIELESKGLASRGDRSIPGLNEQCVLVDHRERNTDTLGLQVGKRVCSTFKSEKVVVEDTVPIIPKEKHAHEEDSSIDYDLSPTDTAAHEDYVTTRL

X-box-binding protein 1 = target: T4, X-box-binding protein 1 (Homo sapiens, UniProt P17861); format: functional, Cricetulus griseus;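 further: confirmatory dose-response counter-screen serving a CHOP assay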
T4 sequence (P17861 whole entry): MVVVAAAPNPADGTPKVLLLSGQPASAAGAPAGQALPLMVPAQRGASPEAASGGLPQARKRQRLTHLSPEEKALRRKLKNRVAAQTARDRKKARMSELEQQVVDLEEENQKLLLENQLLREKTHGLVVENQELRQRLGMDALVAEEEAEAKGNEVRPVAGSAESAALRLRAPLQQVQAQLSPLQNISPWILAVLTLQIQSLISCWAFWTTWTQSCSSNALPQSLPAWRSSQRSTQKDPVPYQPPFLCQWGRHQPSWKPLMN

cells [3] = format: functional, cell-based
cells [4] = format: functional, cell-based; remark: listed apart in the source
[5] = target: T5, Heat shock factor protein 1 (Mus musculus, UniProt P38532); test: decrease of HSF1-responsive luciferase luminescence – cell-based, NIH3T3, dose retest, confirmation (AID 2382); format: functional;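 further: NIH3T3 fibroblasts with HSF1-driven luciferase reporter stressed by proteasome inhibitor MG132; luminescence from HSF1-driven luciferase expression after 8 hours of MG132 stress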
T5 sequence (P38532 whole entry): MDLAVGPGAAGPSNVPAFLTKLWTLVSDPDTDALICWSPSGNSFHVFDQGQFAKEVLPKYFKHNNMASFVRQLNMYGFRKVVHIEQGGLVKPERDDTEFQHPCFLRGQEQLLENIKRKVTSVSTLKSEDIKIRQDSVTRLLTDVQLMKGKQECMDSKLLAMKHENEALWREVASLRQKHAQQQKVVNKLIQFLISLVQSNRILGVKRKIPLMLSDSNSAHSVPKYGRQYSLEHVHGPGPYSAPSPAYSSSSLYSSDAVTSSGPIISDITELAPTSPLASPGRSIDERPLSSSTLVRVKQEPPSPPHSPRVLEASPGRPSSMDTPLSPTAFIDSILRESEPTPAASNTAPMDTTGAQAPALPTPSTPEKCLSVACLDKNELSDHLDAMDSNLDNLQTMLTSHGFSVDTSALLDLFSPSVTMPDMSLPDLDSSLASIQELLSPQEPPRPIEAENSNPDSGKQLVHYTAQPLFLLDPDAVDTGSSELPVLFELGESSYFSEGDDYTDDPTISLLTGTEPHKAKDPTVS

[6] = HEK-293T viability loss after treatment – luminescence, T-cell screen hits, cytotoxicity control for TCR NF-kB inhibitor project, dose response (AID 489026); format: functional, cell-based;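 further: cells exposed to compound about 14 hours before the viability readout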
[7] = target: Intestinal-type alkaline phosphatase (Homo sapiens, UniProt P09923); test: Dose Response confirmation of uHTS hits from a small molecule inhibitors of human intestinal alkaline phosphatase via a luminescent assay. [Related pubchem assays (depositor defined):AID2544, AID2574]; format: functional
Intestinal-type alkaline phosphatase, sequence (P09923 whole entry): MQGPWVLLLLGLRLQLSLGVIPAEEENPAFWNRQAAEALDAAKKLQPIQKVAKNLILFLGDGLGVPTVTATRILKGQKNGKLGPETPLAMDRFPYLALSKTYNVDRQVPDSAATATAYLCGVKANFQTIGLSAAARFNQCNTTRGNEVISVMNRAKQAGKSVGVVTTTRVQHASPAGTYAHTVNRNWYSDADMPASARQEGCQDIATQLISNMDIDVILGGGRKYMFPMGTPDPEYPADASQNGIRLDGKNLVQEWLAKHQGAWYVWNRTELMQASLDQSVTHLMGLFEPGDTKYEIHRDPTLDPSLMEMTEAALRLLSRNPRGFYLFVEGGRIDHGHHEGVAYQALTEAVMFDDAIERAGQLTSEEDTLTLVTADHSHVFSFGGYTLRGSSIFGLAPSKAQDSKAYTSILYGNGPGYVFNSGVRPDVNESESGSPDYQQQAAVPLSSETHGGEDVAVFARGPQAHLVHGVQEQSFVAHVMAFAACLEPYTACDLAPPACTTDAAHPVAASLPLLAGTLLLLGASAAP

[8] = loss of viability in HepG2 cells – cell-based, CellTiter-Glo, cherry-picked, cytotoxicity control for Shn3 inhibitor project, dose response (AID 624134); format: functional
[9] = non-specific 3'UTR reporter inhibition in Clone20-Shn3RL – cell-based, Renilla luciferase, cherry-picked, counter-screen for Shn3 inhibitor project, dose response (AID 624133); format: functional
[10] = reduction of Shn3 3'UTR-driven luciferase in osteoblasts – cell-based, Clone20 osteoblasts, firefly luciferase, cherry-picked, dose response (AID 624132); format: functional;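 further: firefly luciferase luminescence from reporter carrying the Shn3 3'UTR in osteoblasts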
[11] = target: Mitogen-activated protein kinase 10 (Homo sapiens, UniProt P53779); test: Dose response biochemical screening assay for inhibitors of c-Jun N-Terminal Kinase 3 (JNK3). [Related pubchem assays: 746 ]
Mitogen-activated protein kinase 10, sequence (P53779 whole entry): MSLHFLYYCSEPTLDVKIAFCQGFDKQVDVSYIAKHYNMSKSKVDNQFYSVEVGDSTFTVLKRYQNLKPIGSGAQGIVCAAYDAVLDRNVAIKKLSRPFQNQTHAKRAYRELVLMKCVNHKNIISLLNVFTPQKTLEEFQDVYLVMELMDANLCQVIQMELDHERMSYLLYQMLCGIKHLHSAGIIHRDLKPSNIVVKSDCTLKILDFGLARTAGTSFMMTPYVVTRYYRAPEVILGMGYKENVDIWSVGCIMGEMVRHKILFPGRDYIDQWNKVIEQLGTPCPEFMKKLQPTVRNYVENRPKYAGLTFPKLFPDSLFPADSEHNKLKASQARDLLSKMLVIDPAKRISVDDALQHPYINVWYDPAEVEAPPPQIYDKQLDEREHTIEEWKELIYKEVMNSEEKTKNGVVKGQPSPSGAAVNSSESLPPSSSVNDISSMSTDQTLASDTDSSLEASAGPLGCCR

**Q.** With `COc1ccc(-c2oc3ccc(N4CCOCC4)cc3c2C#Cc2ccc(N)cc2)cc1` as the molecule, how does the AC50 (CAAX prenyl protease 2) read?
**A.** 5.02 µM (active)

**Q.** And the EC50 [1]?
**A.** 5.72 µM (active)

**Q.** For `Fc1ccc(NC(S)=NCCc2ccccn2)cc1`, which EC50 [2] is on record?
**A.** 2.11 µM (active)

**Q.** With `CC(C)c1ccc(C2C3CSCC=C3C(C#N)=C(N)C2(C#N)C#N)cc1` (stereo not given) as the molecule, how does the “Absolute IC50 (XBP1)” value (X-box-binding protein 1) read?
**A.** 10 µM

**Q.** For `COC(=O)[C@]12OC[C@]34C([C@@H](O)[C@@H]1O)[C@]1(C)CC(=O)C(O)=C(C)[C@@H]1C[C@H]3OC(=O)[C@H](O)[C@@H]24` (stereo not given in full), which EC50 (cells [3]) is on record?
**A.** > 350 µM (not active)

**Q.** And the EC50 (cells [4])?
**A.** > 350 µM (not active)

**Q.** What about the EC50 [5] of the same molecule?
**A.** 1.01 µM (active)

**Q.** And the IC50 [6]?
**A.** > 80 µM (inactive)

**Q.** Which IC50 [7] does the source give for `COc1ccc(NC(=O)CCN2CCN(S(=O)(=O)c3cc(Cl)ccc3OC)CC2)cc1` here?
**A.** > 100 µM (inactive)

**Q.** With `Cc1ccc(NS(=O)(=O)c2ccc(C(=O)NC3CCN(Cc4ccccc4)CC3)cc2)cc1` as the molecule, how does the AC50 [8] read?
**A.** 14.8 µM (active)

**Q.** What about the AC50 [9] of the same molecule?
**A.** 12.9 µM (active)

**Q.** And the AC50 [10]?
**A.** 4.69 µM (active)

**Q.** What about the IC50 [6] of the same molecule?
**A.** 76.2 µM (inactive)

**Q.** What does the source list for `N#C/C(=C(\O)c1ccco1)c1ccccn1`?
**A.** IC50 [7]: > 100 µM (inactive); IC50 [11]: 51.9 µM (not active)

— ChEMBL document CHEMBL1201862, “PubChem BioAssay data set” (2004)
